Experimental data as given in patent US20110319485A1, “Composition Having Anti-Helicobacter Pylori Activity And Its Application To Inhibit Helicobacter Pylori” (Yushen Biotechnology & Medical Co, Ltd., priority 2010, published 2011).
Values after ≈ are worked out from the molar mass of the structure shown. Read-outs that look alike come from different tables or passages of the source. Marks after values point to notes of the source that are not given here.

Assays:
[1] = test system: Helicobacter pylori BCRC 17027 strain; test: Minimum inhibitory concentration (MIC), agar-dilution method; assay type: cell-based; conditions: BCRC17027, agar dilution assay, TSA with 5% sheep blood, 72 hours, 37° C.
Experimental: H. pylori BCRC 17027 was obtained from the Bioresources Collection and Research Center (BCRC), Hsinchu, Taiwan, ROC. The H. pylori strain was cultured in 5 mL tryptic soy broth (TSB, each liter containing: 17 g peptone from casein, 3 g peptone from soymeal, 2.5 g dextrose, 5 g sodium chloride, 2.5 g dipotassium phosphate, pH 7.3) with a tryptic soy agar (TSA, each liter containing: 15 g peptone from casein, 5 g peptone from soymeal, 5 g sodium chloride, 15 g agar, pH 7.3) and slant containing 5% (v/v) of defibrinated sheep blood formed at the bottom of the test tube.
The broth was incubated in a microaerophilic jar system (BBL), featuring a gas composition of 5% O2, 10% CO2 and 85% N2 (BD GasPak™ EZ Gas Generating systems), at 37° C. for 72 hours. The cell suspension was then diluted with TSB to provide a cell concentration of 3×10^8 CFUs/mL for antimicrobial testing.
The MIC of the purified substance was determined by the agar-dilution method (Shungu et al., 1987, Antimicrob Agents Chemother, 31: 949-950). A volume of 40 μL of cell suspension (initial bacterial count 3×10^8 CFUs/mL) was spread onto the TSA agar plates containing 5% (v/v) defibrinated sheep blood. […] DMSO was used as control. Metronidazole (MTZ) and clarithromycin (CLA) were co-assayed as the positive reference at concentrations of 8.0-128.0 μg/mL and 0.008-0.128 μg/mL, respectively. Following incubation in a microaerophilic jar system, featuring a gas composition of 5% O2, 10% CO2 and 85% N2, at 37° C. for 72 hours, the colonies that had formed on the plates were enumerated. The MIC was defined as the minimum concentration of the test sample (antibacterial agent) in a given culture medium on which bacteria are not able to form colonies.

[2] = test system: Helicobacter pylori BCRC 17027 strain; test: Minimum bactericidal concentration (MBC), broth dilution; assay type: cell-based; conditions: broth dilution assay, 1 hour exposure in Brucella broth, then plated 72 hours, means of three experiments
Helicobacter pylori = conditions: A Vasquez et al., 1996; cited from earlier work
H. pylori BCRC 17027 = test: Inhibitory-zone measurement (agar well diffusion assay); assay type: cell-based, Helicobacter pylori; conditions: for zone of inhibition at 40000 µg/mL: Helicobacter pylori, BCRC17027, 72 h, read-out: The diameter of inhibitory-zone
Experimental: H. pylori BCRC 17027 was obtained from the Bioresources Collection and Research Center (BCRC), Hsinchu, Taiwan, ROC. […] The cell suspension was then diluted with TSB to provide a cell concentration of 3×10^8 CFUs/mL for antimicrobial testing. An agar well diffusion assay was used to determine if H. pylori was susceptible to the anti-bacterial activity of the various fractions and isolates (al Somal et al., 1994, J R Soc Med, 87: 9-12). A volume of 100 μL for each of the bacterial suspensions tested (3×10^8 CFUs/mL) was spread onto the TSA agar plate containing 5% (v/v) defibrinated sheep blood. Wells sized 7 mm in diameter were punched on the plates with 5 μL of the Fr1-Fr5 and ovatodiolide (40 mg/mL; DMSO as solvent) to be individually incorporated into the wells. DMSO was used as negative control and metronidazole (MTZ, 40 mg/mL) was used as positive control.

[3] = Helicobacter pylori, BCRC17027, read-out: MBC
[4] = 5 μL of 40 mg/mL in DMSO per 7 mm well (200 μg/disk), 72 hours, 37° C., microaerophilic, mean±S.D.

Row | MIC [1] | SMILES | MBC [2, 3] | minimum inhibitory concentration of known antibiotics (Helicobacter pylori) | zone of inhibition at 40000 µg/mL (H. pylori BCRC 17027; [4]) | Anti-Helicobacter pylori activity in inhibitory-zone assay (in words) (H. pylori BCRC 17027; agar well diffusion) | The diameter of inhibitory-zone (H. pylori BCRC 17027; [4]) | MBC [2]
1 | 0.032 µg/mL (≈ 0.0428 µM) | CC[C@H]1OC(=O)[C@H](C)[C@@H](O[C@H]2C[C@@](C)(OC)[C@@H](O)[C@H](C)O2)[C@H](C)[C@@H](O[C@@H]2O[C@H](C)C[C@H](N(C)C)[C@H]2O)[C@](C)(OC)C[C@@H](C)C(=O)[C@H](C)[C@@H](O)[C@]1(C)O [Clarithromycin] | 1 µg/mL (≈ 1.34 µM) | 0.25 µg/mL | – | – | – | –
2 | 64 µg/mL (≈ 374 µM) | Cc1ncc([N+](=O)[O-])n1CCO [Metronidazole] | 2560 µg/mL (≈ 15000 µM) | 64 µg/mL | 21.8 ± 3.1 mm | inhibition halos smaller than ovatodiolide | – | –
3 | 16 µg/mL (≈ 48.7 µM) | C=C1C(=O)OC2/C=C(\C)C[C@H]3C=C(CC/C=C(\C)CC[C@H]12)C(=O)O3 (stereo partly shown) [Ovatodiolide, ovatodiolide] | 80 µg/mL (≈ 244 µM) | – | 34 mm | – | 34.4 ± 2.0 mm | 80^b μg/mL
